Data: the supplement of paper PMC10307832

Experiments:
Assay in all cases: relative viability (nuclei count vs DMSO), 5 days (fraction); higher = more cells survive
TGX 221 + Palbociclib = compound: CC1=CN2C(=O)C=C(N=C2C(=C1)C(C)NC3=CC=CC=C3)N4CCOCC4 [TGX 221] + CC(=O)c1c(C)c2cnc(Nc3ccc(N4CCNCC4)cn3)nc2n(C2CCCC2)c1=O [Palbociclib] (partner 0.5 µM)
How it was run: (§1)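 The day after seeding in 1536-well plates, lung cancer cell lines were treated by pin tool with a single drug, or with a fixed anchor-drug dose together with five library-drug doses (not always all listed) in √10 steps. After 5 days, a combined fix-and-stain solution (final 0.05% Triton X-100, 1% formaldehyde, 1 ug/ml Hoechst) was added. Nuclei counted on 4× images gave relative viability as treated counts over vehicle counts, reported as the median of duplicate plates.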

[1] = compound: C1=CC=C(C(=C1)C2=CC=C(C=C2)C3=CSC4=C3C(=C(C(=O)N4)C#N)O)O + NC(=O)Nc1cc(-c2cccc(F)c2)sc1C(=O)N[C@H]1CCCNC1 [AZD7762] (partner 0.2 µM)
How it was run: as §1

TGX 221 + Tozasertib = compound: CC1=CN2C(=O)C=C(N=C2C(=C1)C(C)NC3=CC=CC=C3)N4CCOCC4 [TGX 221] + Cc1cc(Nc2cc(N3CCN(C)CC3)nc(Sc3ccc(NC(=O)C4CC4)cc3)n2)n[nH]1 [Tozasertib] (partner 0.1 µM)
How it was run: as §1

TGX 221 + Linsitinib = compound: CC1=CN2C(=O)C=C(N=C2C(=C1)C(C)NC3=CC=CC=C3)N4CCOCC4 [TGX 221] + C[C@]1(O)C[C@@H](c2nc(-c3ccc4ccc(-c5ccccc5)nc4c3)c3c(N)nccn32)C1 [Linsitinib] (partner 1 µM)
How it was run: as §1

| Cell Line | relative viability (TGX 221 + Palbociclib; first compound 0.08 µM) | relative viability (TGX 221 + Palbociclib; first compound 0.253 µM) | relative viability (TGX 221 + Palbociclib; first compound 0.8 µM) | relative viability (TGX 221 + Palbociclib; first compound 2.53 µM) | relative viability (TGX 221 + Palbociclib; first compound 8 µM) | relative viability ([1]; first compound 0.08 µM) | relative viability ([1]; first compound 0.253 µM) | relative viability ([1]; first compound 0.8 µM) | relative viability ([1]; first compound 2.53 µM) | relative viability ([1]; first compound 8 µM) | relative viability (TGX 221 + Tozasertib; first compound 0.08 µM) | relative viability (TGX 221 + Tozasertib; first compound 0.253 µM) | relative viability (TGX 221 + Tozasertib; first compound 0.8 µM) | relative viability (TGX 221 + Tozasertib; first compound 2.53 µM) | relative viability (TGX 221 + Tozasertib; first compound 8 µM) | relative viability (TGX 221 + Linsitinib; first compound 0.08 µM) | relative viability (TGX 221 + Linsitinib; first compound 0.253 µM) | relative viability (TGX 221 + Linsitinib; first compound 0.8 µM) | relative viability (TGX 221 + Linsitinib; first compound 2.53 µM) | relative viability (TGX 221 + Linsitinib; first compound 8 µM) |
| --- | --- | --- | --- | --- | --- | --- | --- | --- | --- | --- | --- | --- | --- | --- | --- | --- | --- | --- | --- | --- |
| NCI-H3122 | 0.168 | 0.154 | 0.208 | 0.169 | 0.184 | 0.985 | 0.987 | 0.995 | 1.03 | 0.917 | 0.368 | 0.402 | 0.372 | 0.34 | 0.379 | 1.01 | 1.05 | 1 | 1.02 | 0.986 |
| HCC-15 | 0.497 | 0.663 | 0.718 | 0.635 | 0.724 | 1.4 | 1.38 | 1.46 | 1.32 | 0.93 | 0.438 | 0.463 | 0.407 | 0.323 | 0.237 | 0.893 | 0.86 | 0.878 | 0.845 | 0.827 |
| NCI-H2009 | 0.216 | 0.191 | 0.118 | 0.175 | 0.166 |  |  |  |  |  | 0.739 | 0.714 | 0.73 | 0.631 | 0.436 | 1.22 | 1.13 | 1.03 | 0.994 | 0.809 |
| NCI-H23 | 0.479 | 0.441 | 0.424 | 0.479 | 0.389 | 0.232 | 0.168 | 0.239 | 0.229 | 0.229 | 0.461 | 0.393 | 0.386 | 0.322 | 0.241 | 0.471 | 0.532 | 0.525 | 0.531 | 0.477 |
| NCI-H1623 |  |  |  |  |  |  |  |  |  |  | 0.446 | 0.404 | 0.472 | 0.466 | 0.419 |  |  |  |  |  |
| NCI-H1734 | 0.235 | 0.332 | 0.351 | 0.317 | 0.289 | 0.573 | 0.511 | 0.559 | 0.594 | 0.459 | 0.247 | 0.247 | 0.263 | 0.263 | 0.271 | 0.801 | 0.747 | 0.802 | 0.647 | 0.616 |
| NCI-H2170 | 0.332 | 0.423 | 0.393 | 0.365 | 0.334 | 0.898 | 0.722 | 0.875 | 0.842 | 0.548 | 0.658 | 0.666 | 0.626 | 0.731 | 0.67 |  |  |  |  |  |
| NCI-H2342 | 0.541 | 0.529 | 0.492 | 0.517 | 0.531 | 0.432 | 0.536 | 0.446 | 0.474 | 0.358 | 0.422 | 0.484 | 0.6 | 0.547 | 0.447 |  |  |  |  |  |
| HCC-366 | 0.387 | 0.358 | 0.418 | 0.368 | 0.297 |  | 0.342 | 0.259 | 0.281 | 0.273 | 0.0834 | 0.113 | 0.283 | 0.0517 | 0.0636 | 0.673 | 0.434 | 0.598 | 0.545 | 0.291 |
| HARA | 0.264 | 0.28 | 0.268 | 0.232 | 0.246 | 0.286 | 0.361 | 0.345 | 0.284 | 0.304 | 0.147 | 0.105 | 0.123 | 0.1 | 0.0992 | 1.05 | 0.853 | 0.883 | 0.766 | 0.754 |
| NCI-H2087 | 0.214 | 0.234 | 0.237 | 0.21 | 0.248 | 1.58 | 1.2 | 1.25 | 1.41 | 0.75 | 0.254 | 0.269 | 0.231 | 0.217 | 0.233 | 1.07 | 1.05 | 1.16 | 1.03 | 0.94 |
| NCI-H1650 | 0.305 | 0.298 | 0.294 | 0.257 | 0.191 |  |  |  |  |  | 0.399 | 0.412 | 0.381 | 0.297 | 0.235 |  |  |  |  |  |
| NCI-H1563 |  |  |  |  |  |  |  |  |  |  |  |  |  |  |  | 1.2 | 1.2 | 0.909 | 0.868 | 0.755 |
| NCI-H1666 | 0.679 | 0.599 | 0.638 | 0.667 | 0.674 | 0.807 | 0.894 | 0.8 | 0.796 | 0.706 | 0.6 | 0.591 | 0.6 | 0.576 | 0.538 | 0.635 | 0.597 | 0.676 | 0.59 | 0.526 |
| LCLC-103H | 0.472 | 0.471 | 0.469 | 0.424 | 0.495 | 0.737 | 0.731 | 0.803 | 0.728 | 0.743 | 0.409 | 0.466 | 0.465 | 0.434 | 0.354 | 1.11 | 1.12 | 0.93 | 0.846 | 1.2 |
| HOP-62 | 0.429 | 0.449 | 0.484 | 0.509 | 0.43 | 0.533 | 0.548 | 0.376 | 0.704 | 0.474 | 0.372 | 0.416 | 0.34 | 0.387 | 0.316 | 1.06 | 1.09 | 1.02 | 1.01 | 0.889 |
| BEN | 0.483 | 0.413 | 0.439 | 0.487 | 0.503 | 0.647 | 0.692 | 0.675 | 0.807 | 0.73 | 0.51 | 0.505 | 0.489 | 0.473 | 0.496 | 0.869 | 0.839 | 0.878 | 0.823 | 0.774 |
| NCI-H1299 |  |  |  |  |  |  |  |  |  |  |  |  |  |  |  | 0.976 | 1.04 | 1.04 | 0.902 | 0.969 |
| UMC-11 | 0.299 | 0.328 | 0.306 | 0.338 | 0.374 |  |  |  |  |  | 0.183 | 0.195 | 0.204 | 0.203 | 0.194 | 0.966 | 0.979 | 1.13 | 0.987 | 1.04 |
| NCI-H1755 | 0.36 | 0.422 | 0.385 | 0.421 | 0.436 | 0.44 | 0.466 | 0.572 | 0.435 | 0.377 | 0.522 | 0.499 | 0.521 | 0.538 | 0.428 | 0.956 | 0.935 | 0.835 | 0.629 | 0.557 |
